Reference: patent US20130096105A1, “ArylSulfonamide Based Matrix Metalloprotease Inhibitors” (NOVARTIS AG, priority 2008, published 2013)
pIC50: −log10 of the molar value.

Tests used:
[1] = biological target: T1, Gelatinase (MMP-2) (Homo sapiens, UniProt P08253); assay: Gelatinase (MMP-2) inhibitory activity, fluorogenic peptide substrate cleavage; assay type: biochemical; conditions: read-out: MMP02 IC50
T1 sequence (P08253 110-660): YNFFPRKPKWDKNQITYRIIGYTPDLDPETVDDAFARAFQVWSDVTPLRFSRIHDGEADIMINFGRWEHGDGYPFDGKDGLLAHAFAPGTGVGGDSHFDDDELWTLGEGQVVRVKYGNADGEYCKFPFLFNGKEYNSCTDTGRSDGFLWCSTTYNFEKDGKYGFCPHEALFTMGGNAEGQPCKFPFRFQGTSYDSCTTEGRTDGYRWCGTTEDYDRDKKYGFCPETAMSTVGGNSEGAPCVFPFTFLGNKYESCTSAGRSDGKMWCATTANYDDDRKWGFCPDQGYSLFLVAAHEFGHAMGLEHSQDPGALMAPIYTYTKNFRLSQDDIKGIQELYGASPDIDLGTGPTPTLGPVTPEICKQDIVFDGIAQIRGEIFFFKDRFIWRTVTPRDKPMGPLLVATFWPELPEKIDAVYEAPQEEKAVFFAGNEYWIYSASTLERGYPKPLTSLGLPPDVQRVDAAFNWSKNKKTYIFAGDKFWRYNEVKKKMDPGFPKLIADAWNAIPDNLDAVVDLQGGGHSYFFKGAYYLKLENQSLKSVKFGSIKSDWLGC
Summary of the method: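 Fluorogenic assay with MCA-Lys-Pro-Leu-Gly-Leu-Dpa-Ala-Arg-NH2 at 5 μM in Tris-Cl pH 7.5 buffer with ZnCl2, CaCl2, Brij-35 and 1.0% DMSO, 20-25 °C. Enzyme preincubated with inhibitor 60 min; fluorescence (ex 325/em 405 nm) read 60 min after substrate addition. IC50 relative to uninhibited control.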

[2] = biological target: Collagenase-3 (MMP-13) (Homo sapiens, UniProt P45452); assay: Collagenase-3 (MMP-13) inhibitory activity, fluorogenic peptide substrate cleavage; assay type: biochemical; conditions: read-out: MMP13 IC50
Summary of the method: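 Recombinant pro-MMP-13 activated with 1 mM APMA; inhibitor preincubated 60 min, then 5 μM MCA-Lys-Pro-Leu-Gly-Leu-Dpa-Ala-Arg-NH2 added in Tris-Cl pH 7.5 buffer with Zn2+, Ca2+, Brij-35, 1.0% DMSO, 20-25 °C. Fluorescence (ex 325/em 405 nm) read after 60 min; IC50 versus uninhibited control.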

| SMILES | pIC50 [1] | pIC50 [2] |
| --- | --- | --- |
| CC(C)c1n[nH]c2cc(C(=O)c3ccc(Cl)c(S(N)(=O)=O)c3)ccc12 [Example 101, 2-Chloro-5-(3-isopropyl-1H-indazole-6-carbonyl)-benzenesulfonamide] | 5.20 | 5.44 |
| CCOC(=O)N1CCc2[nH]c3ccc(C(=O)c4ccc(Cl)c(S(N)(=O)=O)c4)cc3c2C1 [Example 104, 8-(4-Chloro-3-sulfamoyl-benzoyl)-1,3,4,5-tetrahydro-pyrido[4,3-b]indole-2-carboxylic acid ethyl ester] | 4.67 | 5.72 |
| NS(=O)(=O)c1cc(C(=O)c2ccc3c4c([nH]c3c2)C(=O)NCC4)ccc1Cl [Example 105, 2-Chloro-5-(1-oxo-2,3,4,9-tetrahydro-1H-beta-carboline-7-carbonyl)-benzenesulfonamide] | 5.10 | 5.05 |
| CC(C)(C)C(=O)N1CCc2c([nH]c3ccc(C(=O)c4ccc(Cl)c(S(N)(=O)=O)c4)cc23)C1 [Example 106, 2-Chloro-5-[2-(2,2-dimethyl-propionyl)-2,3,4,9-tetrahydro-1H-beta-carbolise-6-carbonyl]-benzenesulfonamide] | < 5.57 | 6.02 |
| Cc1ccc(C)n1-c1ccc(C(=O)c2ccc(Cl)c(S(N)(=O)=O)c2)cc1F [Example 109, 2-Chloro-5-[4-(2,5-dimethyl-pyrrol-1-yl)-3-fluoro-benzoyl]-benzenesulfonamide] | 4.66 | 4.70 |
| NS(=O)(=O)c1cc(C(=O)c2c[nH]c3ccccc23)ccc1Cl [Example 113, 2-Chloro-5-(1H-indole-3-carbonyl)-benzenesulfonamide] | 5.05 | 5.51 |
| CC(C)CCn1ccc2cc(C(=O)c3ccc(Cl)c(S(N)(=O)=O)c3)ccc21 [Example 117, 2-Chloro-5-[1-(3-methyl-butyl)-1H-indole-5-carbonyl]benzenesulfonamide] | 4.57 | 4.64 |
| COc1ccc(-c2c[nH]c3cc(C(=O)c4ccc(Cl)c(S(N)(=O)=O)c4)ccc23)cc1 [Example 119, 2-Chloro-5-[3-(4-methoxy-phenyl)-1H-indole-6-carbonyl]-benzenesulfonamide] | 4.62 | 5.22 |
| CC(=O)c1ccc(-c2c[nH]c3cc(C(=O)c4ccc(Cl)c(S(N)(=O)=O)c4)ccc23)cc1 [Example 122, 5-[3-(4-Acetyl-phenyl)-1H-indole-6-carbonyl]-2-chloro-benzenesulfonamide] | 4.90 | 5.84 |
| CS(=O)(=O)c1cccc(-c2c[nH]c3cc(C(=O)c4ccc(Cl)c(S(N)(=O)=O)c4)ccc23)c1 [Example 123, 2-Chloro-5-[3-(3-methanesulfonyl-phenyl)-1H-indole-6-carbonyl]-benzenesulfonamide] | 5.30 | 6.41 |
| CS(=O)(=O)c1ccc(-c2c[nH]c3cc(C(=O)c4ccc(Cl)c(S(N)(=O)=O)c4)ccc23)cc1 [Example 124, 2-Chloro-5-[3-(4-methanesulfonyl-phenyl)-1H-indole-6-carbonyl]-benzenesulfonamide] | 4.71 | 6.27 |
| CCS(=O)(=O)c1ccc(-c2c[nH]c3cc(C(=O)c4ccc(Cl)c(S(N)(=O)=O)c4)ccc23)cc1 [Example 125, 2-Chloro-5-[3-(4-ethanesulfonyl-phenyl)-1H-indole-6-carbonyl]-benzenesulfonamide] | < 4.52 | 6.00 |
| NS(=O)(=O)c1cc(C(=O)c2ccc3c(-c4ccc(-c5ccccc5)cc4)c[nH]c3c2)ccc1Cl [Example 126, 5-(3-Biphenyl-4-yl-1H-indole-6-carbonyl)-2-chloro-benzenesulfonamide] | 4.64 | 5.00 |
| NS(=O)(=O)c1cc(C(=O)c2ccc3c(-c4cncnc4)c[nH]c3c2)ccc1Cl [Example 131, 2-Chloro-5-(3-pyrimidin-5-yl-1H-indole-6-carbonyl)-benzenesulfonamide] | 5.40 | 6.71 |
| NS(=O)(=O)c1cc(C(=O)c2ccc3c(-c4ccc(C(=O)N5CCOCC5)cc4)c[nH]c3c2)ccc1Cl [Example 132, 2-Chloro-5-{3-[4-(morpholine-4-carbonyl)-phenyl]-1H-indole-6-carbonyl}-benzenesulfonamide] | 4.80 | 6.14 |
| Cc1noc(C)c1-c1c[nH]c2cc(C(=O)c3ccc(Cl)c(S(N)(=O)=O)c3)ccc12 [Example 133, 2-Chloro-5-[3-(3,5-dimethyl-isoxazol-4-yl)-1H-indole-6-carbonyl]-benzenesulfonamide] | 4.64 | 6.52 |
| COc1cc(-c2c[nH]c3cc(C(=O)c4ccc(Cl)c(S(N)(=O)=O)c4)ccc23)c(Cl)cn1 [Example 134, 2-Chloro-5-[3-(5-chloro-2-methoxy-pyridin-4-yl)-1H-indole-6-carbonyl]-benzenesulfonamide] | 4.64 | 7.00 |
| NS(=O)(=O)c1cc(C(=O)c2ccc3c(-c4ccnc(Cl)c4)c[nH]c3c2)ccc1Cl [Example 136, 2-Chloro-5-[3-(2-chloro-pyridin-4-yl)-1H-indole-6-carbony]-benzenesulfonamide] | 4.74 | 6.60 |

Second part, the molecule after the results:

| pIC50 [1] | pIC50 [2] | SMILES |
| --- | --- | --- |
| 6.57 | 6.60 | CCc1n[nH]c2cc(C(=O)c3ccc(Cl)c(S(N)(=O)=O)c3)ccc12 [Example 99, 2-Chloro-5-(3-ethyl-1H-indazole-6-carbonyl)-benzenesulfonamide] |
| 6.59 | 6.60 | Cc1n[nH]c2cc(C(=O)c3ccc(Cl)c(S(N)(=O)=O)c3)ccc12 [Example 100, 2-Chloro-5-(3-methyl-1H-indazole-6-carbonyl)benzenesulfonamide] |
| 6.00 | 5.57 | NS(=O)(=O)c1cc(C(=O)c2ccc3c(c2)[nH]c2ccccc23)ccc1Cl [Example 102, 5-(9H-Carbazole-2-carbonyl)-2-chloro-benzenesulfonamide] |
| 6.07 | 6.44 | CCOC(=O)N1CCc2[nH]c3cc(C(=O)c4ccc(Cl)c(S(N)(=O)=O)c4)ccc3c2C1 [Example 103, 7-(4-Chloro-3-sulfamoyl-benzoyl)-1,3,4,5-tetrahydro-pyrido[4,3-b]indole-2-carboxylic acid ethyl ester] |
| 7.57 | 7.16 | CN1C(=O)CCC2=C1Cc1cc(C(=O)c3ccc(Cl)c(S(N)(=O)=O)c3)ccc12 [Example 107, 2-Chloro-5-(1-methyl-2-oxo-2,3,4,9-tetrahydro-1H-indeno[2,1-b]pyridine-7-carbonyl)-benzenesulfonamide] |
| 5.54 | 5.39 | CCN1C(=O)CCC2=C1Cc1cc(C(=O)c3ccc(Cl)c(S(N)(=O)=O)c3)ccc12 [Example 108, 2-Chloro-5-(1-ethyl-2-oxo-2,3,4,9-tetrahydro-1H-indeno[2,1-b]pyridine-7-carbonyl)-benzenesulfonamide] |
| 5.48 | 5.50 | Cn1ccc2cc(C(=O)c3ccc(Cl)c(S(N)(=O)=O)c3)ccc21 [Example 114, 2-Chloro-5-(1-methyl-1H-indole-5-carbonyl)-benzenesulfonamide] |
| 6.66 | 6.75 | NS(=O)(=O)c1cc(C(=O)c2ccc3cc[nH]c3c2)ccc1Cl [Example 115, 2-Chloro-5-(1H-indole-6-carbonyl)-benzenesulfonamide] |
| 5.70 | 5.99 | NS(=O)(=O)c1cc(C(=O)c2ccc3c(-c4ccccc4)c[nH]c3c2)ccc1Cl [Example 118, 2-Chloro-5-(3-phenyl-1H-indole-6-carbonyl)-benzenesulfonamide] |
| 5.72 | 6.02 | NS(=O)(=O)c1cc(C(=O)c2ccc3c(-c4ccc(F)cc4)c[nH]c3c2)ccc1Cl [Example 120, 2-Chloro-5-[3-(4-fluoro-phenyl)-1H-indole-6-carbonyl]-benzenesulfonamide] |
| 5.41 | 6.23 | CC(=O)c1cccc(-c2c[nH]c3cc(C(=O)c4ccc(Cl)c(S(N)(=O)=O)c4)ccc23)c1 [Example 121, 5-[3-(3-Acetyl-phenyl)-1H-indole-6-carbonyl]-2-chloro-benzenesulfonamide] |
| 5.53 | 5.78 | NS(=O)(=O)c1cc(C(=O)c2ccc3c(-c4ccc5[nH]ccc5c4)c[nH]c3c2)ccc1Cl [Example 129, 5-(1H,1′H-[3,5′]Biindolyl-6-carbonyl)-2-chloro-benzenesulfonamide] |
| 5.58 | 6.62 | NS(=O)(=O)c1cc(C(=O)c2ccc3c(-c4cccnc4)c[nH]c3c2)ccc1Cl [Example 130, 2-Chloro-5-(3-pyridin-3-yl-1H-indole-6-carbonyl)benzenesulfonamide] |
| 5.98 | 7.05 | NS(=O)(=O)c1cc(C(=O)c2ccc3c(-c4ccncc4)c[nH]c3c2)ccc1Cl [Example 135, 2-Chloro-5-(3-pyridin-4-yl-1H-indole-6-carbonyl)-benzenesulfonamide] |
